Measurements as given in patent US11628164B2, “Composition containing salsolinol for treating liver cancer” (SUNGSHIN WOMEN'S UNIVERSITY R&DB FOUNDATION, priority 2020, dated 2023).

Columns and labels:
[1] = test system: DEN-induced liver cancer mouse model (male); assay: DEN-induced liver cancer mouse model: liver weight, plasma AFP, tumor number, H&E; assay type: in vivo, C57BL/6 mouse
Description: The mouse used in the experiment are 7-week old male and female C57BL/6 mouse. The mouse is obtained from Orient Bio (ORIENT Bio, Gyeonggi-do Province, Korea) and is adapted in an environment that the contrast is controlled at a temperature of 22±2° C. and a humidity of 55 to 60% in 12-hour increments, and a standard diet is provided for 1 week. All animal experiments are performed in accordance with the regulations of the Laboratory Animal Ethics Committee of Sungshin Women's University. After adapting a male mouse born from the mating of the adapted mouse in the same environment for 2 weeks, a DEN-induced liver cancer mouse model is generated by a method of intraperitoneally administering a liver cancer-causing substance, diethylnitrosamine (DEN, 25 mg/kg). The salsolinol (200 mg/kg) is administered for 6 months through intraperitoneal injection three times per week from the time when the DEN-induced liver cancer mouse model (male) became 7 weeks of age. After the mouse is sacrificed, the experiment is performed. After the experiment is completed, the experimental animals are fasted for 4 hours, sacrificed with CO2 gas, and the blood collected from the heart is heparinized. And after that, centrifuge separation is performed at 3,000 rpm for 15 minutes to separate plasma. AFP (α-Fetoprotein) analysis is measured by enzyme-linked immunosorbent assay (ELISA). The separated plasma is diluted 20 times with a diluted solution, and after that, a 50 μl of standard curve reagent and plasma are inserted into a coated 96-well plate, and after that, the culturing is performed for 2 hours at room temperature. The culture medium is removed, and washing is performed 3 times with 100 μl of wash buffer. After adding 100 μl of prepared AFP conjugate to each well, the culturing is performed for 2 hours at room temperature. The culture medium is removed, and washing is performed 3 times with 100 μl of wash buffer. After adding 100 μl of reaction reagent to each well, the culturing is performed for 30 minutes in a dark place. After adding the same amount of reaction stop reagent to each well, tapping is lightly performed to mix thoroughly. With respect to the degree of reaction, after measuring the absorbance at 450 nm, the concentration of AFP is quantified by using a standard curve of a SpectraMax 190 microplate plate reader (Molecular Devices, LCC. San Jose, Calif.). The liver tissue is separated, the number of tumors is measured, and the degree of tumor formation is illustrated by a picture. After fixing 10% formaldehyde for morphological analysis, a paraffin section slide having a thickness of 4 μm is requested to be manufactured by Notus Co., Ltd. After removing paraffin No. 3 with xylene and re-dehydration in 95% and 70% alcohol, staining is performed by using Mayer's Hematoxylin. A male DEN-induced liver cancer mouse model is prepared by intraperitoneal (IP) administration of DEN 25 mg/kg, and the salsolinol 200 mg/kg is administered intraperitoneally to the model, and an effect of the salsolinol on liver cancer treatment is checked.

[2] = test system: AKT, p-AKT, Annexin A2, PCNA in liver tissue; assay: Western blotting of liver tissue, DEN-induced liver cancer mouse model; assay type: in vivo, C57BL/6 mouse; details: DEN+SAL liver tissue
Description: 5×10^5 cells of Human-derived liver cancer cell lines SK-Hep1 and SNU387 are cultured in a 60 mm culture vessel, the cells are lysed, and proteins are separated through electrophoresis. And after that, western blotting analysis is performed by using a specific antibody. After treatment of the SK-Hep1 and the SNU387 with the salsolinol at different times and concentrations, the cells are washed with PBS, and the cells are scraped off with a scraper. The cells are lysed in a lysis buffer for 1 hour, and after that, centrifuge separation is performed at 13,000 rpm for 15 minutes at 4° C., and only the supernatant is extracted. 20 μg of protein contained in the supernatant is electrophoresed on SDS-polyacrylamide gel, and after that, transferred to a PVDF membrane for 2 hours. The sample reacts with antibodies pSTAT3(#9145), STAT3(#9132), PCNA(#2586), 15-PGDH(cayman No. 160615), p53(sc-126), p53(sc-99), pAKT(#9271), AKT(#9272), Annexin A2(#8235), and GAPDH(sc-32233). The protein is detected by using an enhanced chemiluminascence (ECL) detection solution.
The salsolinol (200 mg/kg) is administered for 6 months through intraperitoneal injection three times per week from the time when the DEN-induced liver cancer mouse model (male) became 7 weeks of age. After the mouse is sacrificed, the experiment is performed.
The normal mouse, the DEN-induced liver cancer mouse model, and the DEN-induced liver cancer mouse model administered with the salsolinol are sacrificed, the livers are excised, the liver tissues are crushed, and the proteins are extracted. After separating the extracted protein through electrophoresis, the expression levels of tumor-related genes AKT, p-AKT, Annexin A2, and PCNA and the changes in the expression levels are analyzed by using a Western blotting method (refer to FIG. 9).

CC1NCCc2cc(O)c(O)cc21 (stereo not drawn) [salsolinol, 6,7-dihydroxy-1-methyl-1,2,3,4-tetrahydroisoquinoline]
abnormal types of hepatocytes (H&E staining) ([1]; DEN+SAL liver tissue): not observed | decrease in number of liver cancer tissues compared with DEN model ([1]; DEN+SAL male mice, salsolinol 200 mg/kg i.p.): about 60% | weight of the liver tissue ([1]; DEN+SAL male mice, salsolinol 200 mg/kg i.p. three times per week, 6 months): slightly equal to that of the normal mouse | average number of liver cancer tissues on the liver surface ([1]; DEN+SAL male mice, salsolinol 200 mg/kg i.p., DEN model about 10): four | plasma AFP level (average) ([1]; DEN+SAL male mice, salsolinol 200 mg/kg i.p., normal mouse 50, DEN model 720 ng/ml): 200 ng/mL | liver cancer tissue on the liver surface ([1]; normal mouse administered with salsolinol alone (SAL)): no liver cancer tissue is found | Annexin A2 expression level [2]: decreased | PCNA expression level [2]: decreased to the level of the normal mouse | degree of phosphorylation of AKT (p-AKT) [2]: decreased to the level of the normal mouse
